Test results reported in ChEMBL document CHEMBL1150412, “1,5-Diphenylpyrrole derivatives as antimycobacterial agents. Probing the influence on antimycobacterial activity of lipophilic substituents at the phenyl rings” (J Med Chem, 2008).
In brackets after ≈: the same amount, converted by molar mass.

Tests used:
Mycobacterium avium = test: Antimycobacterial activity against Mycobacterium avium CIP 103317; type: functional
[1] = Protection index, ratio of MNTD50 for african green monkey Vero cells to MIC for Mycobacterium tuberculosis 103471; type: functional
Vero = test: Cytotoxicity against african green monkey Vero cells after 5 days; type: cell-based; conditions: chlorocebus sabaeus, 120 h
[2] = tested on: Mycobacterium tuberculosis; test: Antimycobacterial activity against Mycobacterium tuberculosis 103471; type: functional
[3] = tested on: Mycobacterium tuberculosis; test: Antimycobacterial activity against Mycobacterium tuberculosis H37Rv; type: functional
[4] = tested on: Mycolicibacterium smegmatis; test: Antimycobacterial activity against Mycobacterium smegmatis CIP 103599; type: functional
Mycobacterium marinum = test: Antimycobacterial activity against Mycobacterium marinum CIP 6423; type: functional
[5] = tested on: Mycobacterium tuberculosis; test: Antimycobacterial activity against Mycobacterium tuberculosis H37Rv in […] cells assessed as reduction in number of surviving bacteria at 0.5 ug/mL relative to control; type: functional
[6] = tested on: Mycobacterium tuberculosis; test: Antimycobacterial activity against Mycobacterium tuberculosis H37Rv in […] cells assessed as reduction in number of surviving bacteria at 1 ug/mL relative to control; type: functional
[7] = tested on: Mycobacterium tuberculosis; test: Antimycobacterial activity against Mycobacterium tuberculosis clinical isolates by agar dilution method; type: functional
[8] = tested on: Mycobacterium tuberculosis; test: Antimycobacterial activity against Mycobacterium tuberculosis H37Rv in […] cells assessed as reduction in number of surviving bacteria at 0.25 ug/mL relative to control; type: functional

SMILES | MIC (Mycobacterium avium) | Ratio [1] | MNTD50 (Vero) | MIC [2] | MIC [3] | MIC [4] | MIC (Mycobacterium marinum) | Activity [5] | Activity [6] | MIC [7] | MIC50 [7] | MIC90 [7] | Activity [8]
Cc1c(CN2CCN(C)CC2)cc(-c2ccc(Cl)cc2)n1-c1ccc(Cl)cc1 | 0.5 µg/mL (≈ 1.21 µM) | 4 | 4 µg/mL | 1 µg/mL (≈ 2.41 µM) | 2 µg/mL (≈ 4.83 µM) | 25 µg/mL (≈ 60.3 µM) | 100 µg/mL (≈ 241 µM) | – | – | – | – | – | –
Cc1ccc(-c2cc(CN3CCSCC3)c(C)n2-c2ccc(F)cc2)cc1 | 8 µg/mL (≈ 21 µM) | 256 | 64 µg/mL | 0.25 µg/mL (≈ 0.657 µM) | 0.125 µg/mL (≈ 0.328 µM) | 16 µg/mL (≈ 42 µM) | 8 µg/mL (≈ 21 µM) | – | – | – | – | – | –
CCCc1ccc(-n2c(-c3ccc(F)cc3)cc(CN3CCSCC3)c2C)cc1 | > 16 µg/mL | 4 | 4 µg/mL | 1 µg/mL (≈ 2.45 µM) | – | 4 µg/mL (≈ 9.79 µM) | 16 µg/mL (≈ 39.2 µM) | – | – | – | – | – | –
CCc1ccc(-n2c(-c3ccc(F)cc3)cc(CN3CCSCC3)c2C)cc1 | > 16 µg/mL | 1 | 2 µg/mL | 2 µg/mL (≈ 5.07 µM) | – | 2 µg/mL (≈ 5.07 µM) | > 16 µg/mL | – | – | – | – | – | –
Cc1c(CN2CCSCC2)cc(-c2ccc(Cl)cc2)n1-c1ccc(C(C)C)cc1 | 16 µg/mL (≈ 37.6 µM) | 128 | 32 µg/mL | 0.25 µg/mL (≈ 0.588 µM) | 0.25 µg/mL (≈ 0.588 µM) | > 16 µg/mL | 16 µg/mL (≈ 37.6 µM) | 84.21% | 98.74% | 0.25 µg/mL (≈ 0.588 µM) | 0.25 µg/mL (≈ 0.588 µM) | 0.5 µg/mL (≈ 1.18 µM) | 47.37%
CCc1ccc(-n2c(-c3ccc(Cl)cc3)cc(CN3CCSCC3)c2C)cc1 | 16 µg/mL (≈ 38.9 µM) | 32 | 16 µg/mL | 0.5 µg/mL (≈ 1.22 µM) | 0.5 µg/mL (≈ 1.22 µM) | 8 µg/mL (≈ 19.5 µM) | 4 µg/mL (≈ 9.73 µM) | – | – | – | – | – | –
CCCc1ccc(-c2cc(CN3CCSCC3)c(C)n2-c2ccc(F)cc2)cc1 | > 16 µg/mL | 2 | 4 µg/mL | 2 µg/mL (≈ 4.89 µM) | – | > 16 µg/mL | > 16 µg/mL | – | – | – | – | – | –
Cc1c(CN2CCSCC2)cc(-c2ccc(C(C)C)cc2)n1-c1ccc(F)cc1 | 4 µg/mL (≈ 9.79 µM) | 128 | 32 µg/mL | 0.25 µg/mL (≈ 0.612 µM) | 0.25 µg/mL (≈ 0.612 µM) | > 16 µg/mL | 8 µg/mL (≈ 19.6 µM) | – | – | – | 0.5 µg/mL (≈ 1.22 µM) | 0.5 µg/mL (≈ 1.22 µM) | –
Cc1ccc(-c2cc(CN3CCSCC3)c(C)n2-c2ccc(Cl)cc2)cc1 | 16 µg/mL (≈ 40.3 µM) | 128 | 64 µg/mL | 0.5 µg/mL (≈ 1.26 µM) | 0.5 µg/mL (≈ 1.26 µM) | > 16 µg/mL | > 16 µg/mL | – | – | – | – | – | –
CCc1ccc(-c2cc(CN3CCSCC3)c(C)n2-c2ccc(Cl)cc2)cc1 | 16 µg/mL (≈ 38.9 µM) | 64 | 16 µg/mL | 0.25 µg/mL (≈ 0.608 µM) | 0.25 µg/mL (≈ 0.608 µM) | 8 µg/mL (≈ 19.5 µM) | 8 µg/mL (≈ 19.5 µM) | – | – | – | – | – | –
Cc1ccc(-n2c(-c3ccc(Cl)cc3)cc(CN3CCSCC3)c2C)cc1 | > 16 µg/mL | 32 | 16 µg/mL | 0.5 µg/mL (≈ 1.26 µM) | 0.5 µg/mL (≈ 1.26 µM) | 16 µg/mL (≈ 40.3 µM) | 16 µg/mL (≈ 40.3 µM) | – | – | – | – | – | –
CCCc1ccc(-n2c(-c3ccc(Cl)cc3)cc(CN3CCSCC3)c2C)cc1 | 16 µg/mL (≈ 37.6 µM) | 128 | 32 µg/mL | 0.25 µg/mL (≈ 0.588 µM) | 0.25 µg/mL (≈ 0.588 µM) | > 16 µg/mL | 16 µg/mL (≈ 37.6 µM) | 85.79% | 98.79% | – | 0.5 µg/mL (≈ 1.18 µM) | 1 µg/mL (≈ 2.35 µM) | 21.05%
CCCc1ccc(-c2cc(CN3CCSCC3)c(C)n2-c2ccc(Cl)cc2)cc1 | 4 µg/mL (≈ 9.41 µM) | 64 | 16 µg/mL | 0.25 µg/mL (≈ 0.588 µM) | 0.125 µg/mL (≈ 0.294 µM) | > 16 µg/mL | 4 µg/mL (≈ 9.41 µM) | – | – | – | – | – | –
CCc1ccc(-c2cc(CN3CCSCC3)c(C)n2-c2ccc(F)cc2)cc1 | > 16 µg/mL | 16 | 16 µg/mL | 1 µg/mL (≈ 2.53 µM) | – | > 16 µg/mL | > 16 µg/mL | – | – | – | – | – | –
Cc1c(CN2CCSCC2)cc(-c2ccc(F)cc2)n1-c1ccc(C(C)C)cc1 | > 16 µg/mL | 0.5 | 8 µg/mL | 16 µg/mL (≈ 39.2 µM) | – | 8 µg/mL (≈ 19.6 µM) | > 16 µg/mL | – | – | – | – | – | –
Cc1c(CN2CCSCC2)cc(-c2ccc(C(C)C)cc2)n1-c1ccc(Cl)cc1 | 8 µg/mL (≈ 18.8 µM) | 64 | 8 µg/mL | 0.125 µg/mL (≈ 0.294 µM) | 0.125 µg/mL (≈ 0.294 µM) | 8 µg/mL (≈ 18.8 µM) | 4 µg/mL (≈ 9.41 µM) | – | – | – | – | – | –
[H]/N=C(/N)N[C@H]1[C@H](O)[C@@H](O)[C@H](O[C@@H]2O[C@@H](C)[C@](O)(C=O)[C@H]2O[C@@H]2O[C@@H](CO)[C@H](O)[C@@H](O)[C@@H]2NC)[C@@H](N/C(N)=N\[H])[C@@H]1O (stereo in doubt) [STREPTOMYCIN] | 8 µg/mL (≈ 13.8 µM) | >128 | > 64 µg/mL | 0.5 µg/mL (≈ 0.86 µM) | 4 µg/mL (≈ 6.88 µM) | 8 µg/mL (≈ 13.8 µM) | 32 µg/mL (≈ 55 µM) | – | – | – | – | – | –
NNC(=O)c1ccncc1 [ISONIAZID] | 32 µg/mL (≈ 233 µM) | 128 | 32 µg/mL | 0.125 µg/mL (≈ 0.911 µM) | 0.25 µg/mL (≈ 1.82 µM) | 64 µg/mL (≈ 467 µM) | 16 µg/mL (≈ 117 µM) | – | – | 0.125 µg/mL (≈ 0.911 µM) | 0.125 µg/mL (≈ 0.911 µM) | 0.25 µg/mL (≈ 1.82 µM) | –
CO[C@H]1/C=C/O[C@@]2(C)Oc3c(C)c(O)c4c(O)c(c(/C=N/N5CCN(C)CC5)c(O)c4c3C2=O)NC(=O)/C(C)=C\C=C\[C@H](C)[C@H](O)[C@@H](C)[C@@H](O)[C@@H](C)[C@H](OC(C)=O)[C@@H]1C [RIFAMPIN] | 0.25 µg/mL (≈ 0.304 µM) | 256 | 64 µg/mL | 0.25 µg/mL (≈ 0.304 µM) | 0.25 µg/mL (≈ 0.304 µM) | 32 µg/mL (≈ 38.9 µM) | 0.5 µg/mL (≈ 0.608 µM) | 98.42% | 99.79% | – | – | – | 95.79%
